Paper doi:10.1101/2022.07.07.499167v1, “The thermodynamic state of aerobic glycolytic flux plays a critical role in stabilizing aerobic glycolytic flux of cancer cells” (biorxiv, 2022)

Legend:
pure recombinant PKM2 [1] = target: T1, pure recombinant PKM2 (Homo sapiens, UniProt P14618); assay: LDH-coupled pyruvate kinase assay, NADH absorbance […] nm; assay type: biochemical; settings: 0.2 mM PEP, 2 mM ADP, 5 mM MgCl2, 100 mM KCl, pH 7.4, 37 °C; no FBP; allosteric inhibitor
T1 construct: gene PKM; PKM2 cDNA in pQE-30, 6xHis tag (removal not mentioned), expressed in E. coli M15 (pREP4), Ni-NTA purified
T1 sequence (P14618 2-531): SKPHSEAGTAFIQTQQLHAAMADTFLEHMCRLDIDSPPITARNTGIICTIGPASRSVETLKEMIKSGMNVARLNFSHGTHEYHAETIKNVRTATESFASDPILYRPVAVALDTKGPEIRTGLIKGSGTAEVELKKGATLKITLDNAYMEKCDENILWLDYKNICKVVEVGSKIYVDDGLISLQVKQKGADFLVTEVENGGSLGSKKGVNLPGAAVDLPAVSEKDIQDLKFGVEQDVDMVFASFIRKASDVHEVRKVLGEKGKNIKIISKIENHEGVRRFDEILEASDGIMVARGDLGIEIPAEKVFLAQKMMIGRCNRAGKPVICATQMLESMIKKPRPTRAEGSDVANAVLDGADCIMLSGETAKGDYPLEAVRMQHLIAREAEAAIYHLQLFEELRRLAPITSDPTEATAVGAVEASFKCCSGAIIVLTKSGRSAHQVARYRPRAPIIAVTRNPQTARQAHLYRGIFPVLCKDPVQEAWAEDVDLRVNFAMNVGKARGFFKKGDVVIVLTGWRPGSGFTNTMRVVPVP

pure recombinant PKM2 [2] = target: T1, pure recombinant PKM2; assay: as above; assay type: biochemical; settings: 0.2 mM PEP, 2 mM ADP, 5 mM MgCl2, 100 mM KCl, pH 7.4, 37 °C; no inhibitor mixture; allosteric activator

IC50 (pure recombinant PKM2 [1]) [µM] | AC50 (pure recombinant PKM2 [2]) [µM] | SMILES
254 ± 104 |  | N[C@@H](Cc1c[nH]c2ccccc12)C(=O)O [Tryptophan]
 | 0.0434 ± 0.0217 | O=P(O)(O)OC[C@H]1OC(O)(COP(=O)(O)O)[C@@H](O)[C@@H]1O (stereo partly drawn) [FBP]
40.9 ± 13.4 |  | N[C@@H](Cc1ccccc1)C(=O)O [Phenylalanine]
227 ± 174 |  | C[C@H](N)C(=O)O [Alanine]
373 ± 175 |  | CC(C)[C@H](N)C(=O)O [Valine]
 | 339 ± 123 | N[C@@H](CO)C(=O)O [Serine]
